Assay results reported in patent publication US20100292231A1, “Indazole Compounds for Treating Inflammatory Disorders, Demyelinating Disorders and Cancers” (priority 2007, published 2010).
Read-outs that look alike come from different tables or passages of the source.

Experiments:
Assay in all cases: SelectScreen kinase specificity survey
Type in all cases: biochemical
KIT = target: T1, KIT (Homo sapiens, UniProt P10721); conditions: estimated, abridged dose response curve, read-out: Kinase inhibitory activity EC50
T1 construct: purchased Invitrogen (SelectScreen platform)
T1 sequence (P10721 26-976): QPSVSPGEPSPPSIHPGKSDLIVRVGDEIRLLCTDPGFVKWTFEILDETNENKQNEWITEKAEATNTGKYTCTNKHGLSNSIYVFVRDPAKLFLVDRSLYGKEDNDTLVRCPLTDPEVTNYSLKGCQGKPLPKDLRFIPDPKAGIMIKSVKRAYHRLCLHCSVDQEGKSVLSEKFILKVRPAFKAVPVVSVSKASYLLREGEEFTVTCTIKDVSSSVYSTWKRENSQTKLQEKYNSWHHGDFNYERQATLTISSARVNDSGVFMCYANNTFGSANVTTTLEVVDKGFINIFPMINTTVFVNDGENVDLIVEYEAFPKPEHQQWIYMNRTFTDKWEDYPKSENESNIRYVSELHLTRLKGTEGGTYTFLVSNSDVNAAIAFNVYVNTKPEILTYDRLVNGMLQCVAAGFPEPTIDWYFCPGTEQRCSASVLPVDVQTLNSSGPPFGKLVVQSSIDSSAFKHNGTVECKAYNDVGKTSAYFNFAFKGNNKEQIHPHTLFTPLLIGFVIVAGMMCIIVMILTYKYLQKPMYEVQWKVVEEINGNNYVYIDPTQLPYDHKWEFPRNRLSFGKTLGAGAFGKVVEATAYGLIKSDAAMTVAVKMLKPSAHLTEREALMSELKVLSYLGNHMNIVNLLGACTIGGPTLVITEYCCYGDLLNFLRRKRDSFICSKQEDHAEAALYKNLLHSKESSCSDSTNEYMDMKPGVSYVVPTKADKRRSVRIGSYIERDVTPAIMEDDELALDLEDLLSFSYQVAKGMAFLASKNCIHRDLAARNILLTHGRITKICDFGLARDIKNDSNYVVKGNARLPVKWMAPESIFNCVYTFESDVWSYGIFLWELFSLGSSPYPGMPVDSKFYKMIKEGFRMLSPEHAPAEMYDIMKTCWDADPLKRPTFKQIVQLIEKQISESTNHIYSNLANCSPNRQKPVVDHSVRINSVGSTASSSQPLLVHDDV
Protocol: (§1) Testing of the compounds described in this invention was carried out using the SelectScreen™ platform from Invitrogen, Inc. (Carlsbad. Calif., USA) and the details of its performance are readily viewed via the web by linking to: http://www.invitrogen.com/downloads/SelectScrn_Brochure.pdf.
(§2) Briefly, the approach is based on treating each specific kinase with a unique substrate and optical reporter system in the presence of ATP at 100 micromolar. In controls, the substrate is phosphorylated and a baseline optimal response is recorded.
(§3) The compounds were then re-tested by adding graded amounts of putative inhibitor which were added in 5 separate increments to generate a dose response curve. The latter is obtained by fitting to a 4 parameter Hill equation, a sigmoid saturation equation.
(§4) The same assay system described in Example 2 can be applied in the determination of kinase specificity. It is well understood by medicinal chemists in the development of kinase inhibitors that the resulting molecules often lack specificity. Not only are homologous kinases inhibited by the same class of compounds, but also non-homologous kinases can be affected by allosteric, induced, activated vs inactivated conformation, and protein folding interactions with the putative inhibitor, which otherwise had been designed to be specific. These off target effects are difficult to predict and can only be ruled in or out by empirically surveying a large set of kinases. It is also understood that changes to scaffolds and variation in their chemical decorations may influence the extent of promiscuity in the patterns of kinase inhibition across kinase classes.
(§5) The following experiment was conducted to address this issue. The indazole compound (IV), described in Example 2 and representative of the new genus was tested along with Symadex against a panel of 230 kinases representative of all known kinases classes. Included in the survey were the Flt3, its mutant, and close relatives in the Class III receptor tyrosine kinase class, together with serine-threonine kinases and atypical kinases many of which share no homology of active site with Flt3 as shown, for example, in the respective “genecard” for each kinase and available for inspection at on the web at http://www.genecards.org/.
(§6) Table 3 lists the estimated EC50 values from an abridged dose response curve for Symadex (C-1311) and CF-123. The kinases are listed alphabetically by Group and Family.

CAMK1D (CaMKI delta) = target: T2, CAMK1D (CaMKI delta) (Homo sapiens, UniProt Q8IU85); conditions: estimated, abridged dose response curve, read-out: Kinase inhibitory activity EC50
T2 construct: purchased Invitrogen, Inc. (SelectScreen platform)
Protocol: as §1, §2, §3, §4, §5, §6

FRAP1 (mTOR) = target: T3, FRAP1 (mTOR) (Homo sapiens, UniProt P42345); conditions: estimated, abridged dose response curve, read-out: Kinase inhibitory activity EC50
T3 construct: purchased Invitrogen, Inc. (SelectScreen platform)
Protocol: as §1, §2, §3, §4, §5, §6

DYRK1B = target: T4, DYRK1B (Homo sapiens, UniProt Q9Y463); conditions: estimated, abridged dose response curve, read-out: Kinase inhibitory activity EC50
T4 construct: purchased Invitrogen (SelectScreen platform)
Protocol: as §1, §2, §3, §4, §5, §6

PRKCE (PKC epsilon) = target: T5, PRKCE (PKC epsilon) (Homo sapiens, UniProt Q02156); conditions: estimated, abridged dose response curve, read-out: Kinase inhibitory activity EC50
T5 construct: purchased Invitrogen, Inc. (SelectScreen platform)
Protocol: as §1, §2, §3, §4, §5, §6

SGK (SGK1) = target: T6, SGK (SGK1) (Homo sapiens, UniProt O00141); conditions: estimated, abridged dose response curve, read-out: Kinase inhibitory activity EC50
T6 construct: purchased Invitrogen, Inc. (SelectScreen platform)
Protocol: as §1, §2, §3, §4, §5, §6

ADRBK2 (BARK2, GRK3) = target: T7, ADRBK2 (BARK2, GRK3) (Homo sapiens, UniProt P35626)
T7 construct: purchased Invitrogen (SelectScreen platform)
Protocol: as §1, §2, §3, §4, §5, §6

EPHA5 = target: T8, EPHA5 (Homo sapiens, UniProt P54756); conditions: estimated, abridged dose response curve, read-out: Kinase inhibitory activity EC50
T8 construct: purchased Invitrogen (SelectScreen service)
Protocol: as §1, §2, §3, §4, §5, §6

FLT1 (VEGFR1) = target: T9, FLT1 (VEGFR1) (Homo sapiens, UniProt P17948); conditions: estimated, abridged dose response curve, read-out: Kinase inhibitory activity EC50
T9 construct: purchased Invitrogen, Inc. (SelectScreen platform)
Protocol: as §1, §2, §3, §4, §5, §6

EGFR (ErbB1) = target: T10, EGFR (ErbB1) (Homo sapiens, UniProt P00533); conditions: estimated, abridged dose response curve, read-out: Kinase inhibitory activity EC50
T10 construct: purchased Invitrogen (SelectScreen service)
Protocol: as §1, §2, §3, §4, §5, §6

GRK4 = target: T11, GRK4 (Homo sapiens, UniProt P32298)
T11 construct: purchased Invitrogen (SelectScreen platform)
Protocol: as §1, §2, §3, §4, §5, §6

PLK3 = target: T12, PLK3 (Homo sapiens, UniProt Q9H4B4); conditions: estimated, abridged dose response curve, read-out: Kinase inhibitory activity EC50
T12 construct: purchased Invitrogen, Inc. (SelectScreen service)
Protocol: as §1, §2, §3, §4, §5, §6

FGFR2 = target: T13, FGFR2 (Homo sapiens, UniProt P21802); conditions: estimated, abridged dose response curve, read-out: Kinase inhibitory activity EC50
T13 construct: purchased Invitrogen (SelectScreen platform)
Protocol: as §1, §2, §3, §4, §5, §6

CSNK1D (CK1 delta) = target: T14, CSNK1D (CK1 delta) (Homo sapiens, UniProt P48730); conditions: estimated, abridged dose response curve, read-out: Kinase inhibitory activity EC50
T14 construct: purchased Invitrogen (SelectScreen platform)
T14 sequence (P48730 whole entry): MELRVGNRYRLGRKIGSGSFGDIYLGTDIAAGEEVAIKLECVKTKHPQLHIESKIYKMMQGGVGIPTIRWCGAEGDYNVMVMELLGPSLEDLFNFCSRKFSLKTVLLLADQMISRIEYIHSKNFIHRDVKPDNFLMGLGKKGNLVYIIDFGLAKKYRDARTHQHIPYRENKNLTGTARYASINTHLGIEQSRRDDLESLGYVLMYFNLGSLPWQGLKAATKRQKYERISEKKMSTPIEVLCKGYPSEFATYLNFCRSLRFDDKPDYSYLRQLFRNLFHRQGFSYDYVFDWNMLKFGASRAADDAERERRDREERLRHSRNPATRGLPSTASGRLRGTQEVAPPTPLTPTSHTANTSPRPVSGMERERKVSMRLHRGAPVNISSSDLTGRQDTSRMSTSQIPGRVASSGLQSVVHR
Protocol: as §1, §2, §3, §4, §5, §6

MAP2K2 (MEK2) = target: T15, MAP2K2 (MEK2) (Homo sapiens, UniProt P36507); conditions: estimated, abridged dose response curve, read-out: Kinase inhibitory activity EC50
T15 construct: purchased Invitrogen (SelectScreen platform)
Protocol: as §1, §2, §3, §4, §5, §6

LYN A = target: T16, LYN A (Homo sapiens, UniProt P07948); conditions: estimated, abridged dose response curve, read-out: Kinase inhibitory activity EC50
T16 construct: purchased Invitrogen (SelectScreen)
Protocol: as §1, §2, §3, §4, §5, §6

EPHA8 = target: T17, EPHA8 (Homo sapiens, UniProt P29322); conditions: estimated, abridged dose response curve, read-out: Kinase inhibitory activity EC50
T17 construct: purchased Invitrogen (SelectScreen service)
T17 sequence (P29322 28-1005): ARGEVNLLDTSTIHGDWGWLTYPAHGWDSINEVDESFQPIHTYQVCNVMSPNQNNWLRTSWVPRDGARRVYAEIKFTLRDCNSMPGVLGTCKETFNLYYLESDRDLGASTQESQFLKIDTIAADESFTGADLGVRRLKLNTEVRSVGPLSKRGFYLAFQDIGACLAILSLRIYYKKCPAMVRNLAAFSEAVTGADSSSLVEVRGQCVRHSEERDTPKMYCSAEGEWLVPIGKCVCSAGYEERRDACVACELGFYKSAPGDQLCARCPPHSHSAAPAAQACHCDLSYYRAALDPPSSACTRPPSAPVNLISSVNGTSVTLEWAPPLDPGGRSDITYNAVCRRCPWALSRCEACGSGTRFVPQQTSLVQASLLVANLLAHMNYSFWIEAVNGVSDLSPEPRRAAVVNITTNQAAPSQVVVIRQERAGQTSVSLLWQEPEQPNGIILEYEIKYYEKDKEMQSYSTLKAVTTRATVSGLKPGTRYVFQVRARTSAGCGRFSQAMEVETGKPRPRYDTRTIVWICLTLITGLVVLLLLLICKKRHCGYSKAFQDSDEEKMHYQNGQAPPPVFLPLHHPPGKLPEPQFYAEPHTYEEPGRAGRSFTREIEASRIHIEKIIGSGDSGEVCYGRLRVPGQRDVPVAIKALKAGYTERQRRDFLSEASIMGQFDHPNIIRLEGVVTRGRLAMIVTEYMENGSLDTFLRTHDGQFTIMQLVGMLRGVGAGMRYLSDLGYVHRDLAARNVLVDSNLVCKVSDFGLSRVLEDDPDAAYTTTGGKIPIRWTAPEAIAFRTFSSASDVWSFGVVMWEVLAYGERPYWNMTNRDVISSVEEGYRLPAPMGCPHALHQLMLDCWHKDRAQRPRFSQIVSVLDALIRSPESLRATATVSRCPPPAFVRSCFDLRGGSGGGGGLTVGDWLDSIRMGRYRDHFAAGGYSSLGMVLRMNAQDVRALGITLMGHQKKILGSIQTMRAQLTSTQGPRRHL
Protocol: as §1, §2, §3, §4, §5, §6

STK22D (TSSK1) = target: T18, STK22D (TSSK1) (Homo sapiens, UniProt Q9BXA7); conditions: estimated, abridged dose response curve, read-out: Kinase inhibitory activity EC50
T18 construct: purchased Invitrogen, Inc. (SelectScreen platform)
T18 sequence (Q9BXA7 whole entry): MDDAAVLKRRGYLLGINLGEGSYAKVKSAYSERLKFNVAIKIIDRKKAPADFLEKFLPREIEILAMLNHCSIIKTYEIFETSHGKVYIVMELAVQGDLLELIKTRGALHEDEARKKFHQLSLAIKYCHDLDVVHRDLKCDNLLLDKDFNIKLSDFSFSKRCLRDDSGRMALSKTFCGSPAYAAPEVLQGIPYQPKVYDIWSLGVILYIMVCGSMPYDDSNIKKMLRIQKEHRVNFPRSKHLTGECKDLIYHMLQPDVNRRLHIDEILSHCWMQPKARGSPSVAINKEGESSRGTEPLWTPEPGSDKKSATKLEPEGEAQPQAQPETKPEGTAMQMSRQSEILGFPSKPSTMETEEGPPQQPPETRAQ
Protocol: as §1, §2, §3, §4, §5, §6

INSRR (IRR) = target: T19, INSRR (IRR) (Homo sapiens, UniProt P14616); conditions: estimated, abridged dose response curve, read-out: Kinase inhibitory activity EC50
T19 construct: purchased Invitrogen (SelectScreen platform)
T19 sequence (P14616 27-1297): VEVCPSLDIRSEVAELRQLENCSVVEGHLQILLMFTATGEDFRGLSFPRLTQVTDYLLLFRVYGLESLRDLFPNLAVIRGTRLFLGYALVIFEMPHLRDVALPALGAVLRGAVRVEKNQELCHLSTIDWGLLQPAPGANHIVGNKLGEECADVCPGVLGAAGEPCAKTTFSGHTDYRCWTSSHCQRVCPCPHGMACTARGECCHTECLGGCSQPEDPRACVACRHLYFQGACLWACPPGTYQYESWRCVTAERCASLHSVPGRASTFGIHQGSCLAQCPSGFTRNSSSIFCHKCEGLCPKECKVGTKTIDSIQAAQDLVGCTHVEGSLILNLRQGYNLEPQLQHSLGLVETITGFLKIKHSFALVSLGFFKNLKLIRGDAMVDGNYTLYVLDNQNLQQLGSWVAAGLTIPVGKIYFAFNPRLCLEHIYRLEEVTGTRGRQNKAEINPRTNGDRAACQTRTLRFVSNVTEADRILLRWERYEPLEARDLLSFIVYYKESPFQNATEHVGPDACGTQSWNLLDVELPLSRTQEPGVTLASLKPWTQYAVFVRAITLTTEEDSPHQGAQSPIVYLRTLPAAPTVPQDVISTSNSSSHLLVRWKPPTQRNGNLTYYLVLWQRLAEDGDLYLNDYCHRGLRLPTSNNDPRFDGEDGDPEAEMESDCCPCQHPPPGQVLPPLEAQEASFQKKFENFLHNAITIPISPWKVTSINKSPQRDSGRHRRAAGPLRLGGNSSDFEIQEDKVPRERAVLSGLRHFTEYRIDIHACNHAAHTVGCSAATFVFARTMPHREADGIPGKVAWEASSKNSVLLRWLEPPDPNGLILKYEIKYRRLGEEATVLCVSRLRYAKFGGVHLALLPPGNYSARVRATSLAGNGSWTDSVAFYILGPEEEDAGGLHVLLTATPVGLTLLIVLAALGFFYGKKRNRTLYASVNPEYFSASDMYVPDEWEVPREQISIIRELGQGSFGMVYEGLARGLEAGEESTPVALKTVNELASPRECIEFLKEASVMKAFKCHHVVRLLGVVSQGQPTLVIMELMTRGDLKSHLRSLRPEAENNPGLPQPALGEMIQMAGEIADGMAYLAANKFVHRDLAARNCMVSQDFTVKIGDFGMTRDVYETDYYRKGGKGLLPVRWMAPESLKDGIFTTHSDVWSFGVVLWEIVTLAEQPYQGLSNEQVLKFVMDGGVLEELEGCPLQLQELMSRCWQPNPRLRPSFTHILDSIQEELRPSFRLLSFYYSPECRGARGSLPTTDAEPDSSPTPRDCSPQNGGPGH
Protocol: as §1, §2, §3, §4, §5, §6

SRC N1 = target: T20, SRC N1 (Homo sapiens, UniProt P12931); conditions: estimated, abridged dose response curve, read-out: Kinase inhibitory activity EC50
T20 construct: purchased Invitrogen (SelectScreen)
Protocol: as §1, §2, §3, §4, §5, §6

MST4 = target: T21, MST4 (Homo sapiens, UniProt Q9P289); conditions: estimated, abridged dose response curve, read-out: Kinase inhibitory activity EC50
T21 construct: purchased Invitrogen (SelectScreen platform)
T21 sequence (Q9P289 whole entry): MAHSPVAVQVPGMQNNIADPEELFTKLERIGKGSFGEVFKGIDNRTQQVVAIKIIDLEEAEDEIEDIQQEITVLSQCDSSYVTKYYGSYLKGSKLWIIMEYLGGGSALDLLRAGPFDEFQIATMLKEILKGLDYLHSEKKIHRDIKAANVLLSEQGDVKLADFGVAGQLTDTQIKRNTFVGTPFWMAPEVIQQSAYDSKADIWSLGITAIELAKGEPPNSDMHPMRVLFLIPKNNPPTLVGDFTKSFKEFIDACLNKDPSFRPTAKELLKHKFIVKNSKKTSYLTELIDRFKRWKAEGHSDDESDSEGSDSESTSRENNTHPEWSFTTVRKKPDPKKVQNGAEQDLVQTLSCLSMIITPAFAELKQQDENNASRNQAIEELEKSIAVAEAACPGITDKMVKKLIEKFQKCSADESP
Protocol: as §1, §2, §3, §4, §5, §6

PRKACA (PKA, PKACA) = target: T22, PRKACA (PKA, PKACA) (Homo sapiens, UniProt P17612); conditions: estimated, abridged dose response curve, read-out: Kinase inhibitory activity EC50
T22 construct: purchased Invitrogen (SelectScreen platform)
Protocol: as §1, §2, §3, §4, §5, §6

CHEK2 (CHK2) = target: T23, CHEK2 (CHK2) (Homo sapiens, UniProt O96017); conditions: estimated, abridged dose response curve, read-out: Kinase inhibitory activity EC50
T23 construct: purchased Invitrogen, Inc. (SelectScreen platform)
T23 sequence (O96017 whole entry): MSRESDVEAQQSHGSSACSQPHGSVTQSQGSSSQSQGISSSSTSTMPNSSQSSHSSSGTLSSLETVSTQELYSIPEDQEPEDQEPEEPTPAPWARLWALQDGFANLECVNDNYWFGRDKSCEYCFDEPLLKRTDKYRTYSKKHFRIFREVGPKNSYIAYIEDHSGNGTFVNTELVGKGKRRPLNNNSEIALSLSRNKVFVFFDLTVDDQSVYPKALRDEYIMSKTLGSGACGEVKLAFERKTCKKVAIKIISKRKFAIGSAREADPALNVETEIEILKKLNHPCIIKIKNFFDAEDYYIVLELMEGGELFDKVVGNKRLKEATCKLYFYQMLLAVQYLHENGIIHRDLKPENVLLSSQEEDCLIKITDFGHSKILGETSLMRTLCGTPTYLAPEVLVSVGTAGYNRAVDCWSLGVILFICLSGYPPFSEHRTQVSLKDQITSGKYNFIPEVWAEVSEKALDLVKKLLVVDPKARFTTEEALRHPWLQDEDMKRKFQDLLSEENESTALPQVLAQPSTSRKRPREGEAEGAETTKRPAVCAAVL
Protocol: as §1, §2, §3, §4, §5, §6

KIT T670I = target: T24, KIT T670I (Homo sapiens, UniProt P10721, T670I); conditions: estimated, abridged dose response curve, read-out: Kinase inhibitory activity EC50
T24 construct: purchased Invitrogen (SelectScreen platform)
T24 sequence (P10721 26-976 T670I): as the sequence (P10721 26-976) above, with T645I counted along it
Protocol: as §1, §2, §3, §4, §5, §6

MAP2K6 (MKK6) = target: T25, MAP2K6 (MKK6) (Homo sapiens, UniProt P52564); conditions: estimated, abridged dose response curve, read-out: Kinase inhibitory activity EC50
T25 construct: purchased Invitrogen (SelectScreen platform)
Protocol: as §1, §2, §3, §4, §5, §6

ERBB4 (HER4) = target: T26, ERBB4 (HER4) (Homo sapiens, UniProt Q15303); conditions: estimated, abridged dose response curve, read-out: Kinase inhibitory activity EC50
T26 construct: purchased Invitrogen (SelectScreen service)
Protocol: as §1, §2, §3, §4, §5, §6

Structure (SMILES): CCN(CC)CCNc1ccc2ncn3c4ccc(O)cc4c(=O)c1c23 [Symadex, 5-(2-(diethylamino)ethylamino)-8-hydroxy-6H-imidazo[4,5,1-de]acridin-6-one, reference compound]
- EC50 (KIT): 2.25 µM
- EC50 (CAMK1D (CaMKI delta)): 4 µM
- EC50 (FRAP1 (mTOR)): > 5 µM
- EC50 (DYRK1B): 0.991 µM
- EC50 (PRKCE (PKC epsilon)): > 5 µM
- EC50 (SGK (SGK1)): 2.71 µM
- EC50 (ADRBK2 (BARK2, GRK3)): > 5 µM
- EC50 (EPHA5): > 5 µM
- EC50 (FLT1 (VEGFR1)): > 5 µM
- EC50 (EGFR (ErbB1)): > 5 µM
- EC50 (GRK4): > 5 µM
- EC50 (PLK3): > 5 µM
- EC50 (FGFR2): 4.5 µM
- EC50 (CSNK1D (CK1 delta)): 0.673 µM
- EC50 (MAP2K2 (MEK2)): > 5 µM
- EC50 (LYN A): 0.791 µM
- EC50 (EPHA8): 3.35 µM
- EC50 (STK22D (TSSK1)): 1.95 µM
- EC50 (INSRR (IRR)): > 5 µM
- EC50 (SRC N1): 3.15 µM
- EC50 (MST4): 1.58 µM
- EC50 (PRKACA (PKA, PKACA)): > 5 µM
- EC50 (CHEK2 (CHK2)): > 5 µM
- EC50 (KIT T670I): > 5 µM
- EC50 (MAP2K6 (MKK6)): > 5 µM
- EC50 (ERBB4 (HER4)): > 5 µM

Structure (SMILES): CN(C)CCCNc1ccc2ncn3c4ccc5[nH]ncc5c4c(=O)c1c23 [Compound (IV)]
- EC50 (KIT): 1.1 µM
- EC50 (CAMK1D (CaMKI delta)): 2.78 µM
- EC50 (FRAP1 (mTOR)): > 5 µM
- EC50 (DYRK1B): 0.82 µM
- EC50 (PRKCE (PKC epsilon)): 2.52 µM
- EC50 (SGK (SGK1)): 3.45 µM
- EC50 (ADRBK2 (BARK2, GRK3); ADRBK2 (BARK2, GRK3), estimated, abridged dose response curve, read-out: Kinase inhibitory activity EC50): > 5 µM
- EC50 (EPHA5): > 5 µM
- EC50 (FLT1 (VEGFR1)): > 5 µM
- EC50 (EGFR (ErbB1)): > 5 µM
- EC50 (GRK4; GRK4, estimated, abridged dose response curve, read-out: Kinase inhibitory activity EC50): > 5 µM
- EC50 (PLK3): > 5 µM
- EC50 (FGFR2): 2.86 µM
- EC50 (CSNK1D (CK1 delta)): 4.8 µM
- EC50 (MAP2K2 (MEK2)): > 5 µM
- EC50 (LYN A): 0.389 µM
- EC50 (EPHA8): 4.15 µM
- EC50 (STK22D (TSSK1)): 2.02 µM
- EC50 (INSRR (IRR)): 1.15 µM
- EC50 (SRC N1): 0.511 µM
- EC50 (MST4): > 5 µM
- EC50 (PRKACA (PKA, PKACA)): > 5 µM
- EC50 (CHEK2 (CHK2)): > 5 µM
- EC50 (KIT T670I): > 5 µM
- EC50 (MAP2K6 (MKK6)): > 5 µM
- EC50 (ERBB4 (HER4)): > 5 µM
